Measured values reported in patent US8062651B1, “Attractant pheromone for the male pink hibiscus mealybug, Maconellicoccus hirsutus (Green) (Homoptera: Pseudococcidae)” (The United States of America as represented by the …, priority 2004, dated 2011).

What was measured:
male M. hirsutus = test: Field bioassay: sticky traps baited with rubber septa lures; format: in vivo, Maconellicoccus hirsutus; details: (R)-lavandulol and (R)-maconelliol together, equal amount to ester, 1 and 10-μg doses, 1:5
Experimental: Field Bioassays: Gray halo-butyl rubber septa (5 mm, West Pharmaceutical Services, Kearney, Nebr.) loaded with 1 μg of RS, SR, RR, and SS binary diastereoisomeric mixtures of two candidate pheromone compounds placed on white sticky cards (Pherocon V traps, Trécé, Salinas, Calif.) were used for the field trails in Florida. Treatments were arranged in a randomized complete block design with nine replicates and about ˜1 m between traps within replicates. The cards were attached to the top of metal rods and placed one foot above hibiscus plants in a hedgerow. Cards were collected, put separately in transparent plastic bags, and brought back to the laboratory to count the trapped male PHM under a microscope. Comparisons were made between candidate synthetic mixtures and a blank control trap.
Field bioassays: Gray halo-butyl rubber septa (5 mm, West Pharmaceutical Services, Kearney, Nebr.) were soxhlet extracted with acetone for 48 hr and dried in a fume hood before use. The cleaned septa were loaded with the desired rates of candidate pheromone components in ˜40 μl of hexane solution, and used for field tests. The same amount of hexane was loaded on septa for the blank controls. […]

[1] = test system: male M. hirsutus antennae; details: alcoholic moieties found in volatile extracts; Zhang et al. 2004; cited from earlier work
[2] = test system: male M. hirsutus antennae; test: Coupled GC-EAD of male antennae; parameters: species or system Maconellicoccus hirsutus; details: GC-EAD of female airborne extracts
Experimental: Analytical Methods: The coupled gas chromatographic-electroantennographic detection (GC-EAD) system used was as previously described (Zhang, A., et al., J. Chem. Ecol., 23: […] (1997); Zhang, A., et al., J. Chem. Ecol., 25: 1221-1232 (1999); Zhang, A., and S. Polavarapu, J. Chem. Ecol., 29: 2153-2164 (2003)). A HP 6890 GC equipped with a 60 m×0.25-mm ID, 0.25-μm film-thickness DB-WAXETR (J&W Scientific Inc., Folsom, Calif.) capillary column in the splitless mode with hydrogen (1.4 ml/min) as carrier was used for analysis. The column temperature program was hold at 80° C. for 2 min, then heated to 250° C. at 15° C./min and held for 15 min. Electron impact mass spectrometry (EI mass) was conducted on a HP 6890 GC coupled to a HP 5973 Mass Selective Detector using an a 60 m×0.25-mm ID, 0.25-μm film-thickness DB-WAXETR capillary column at 50° C. for 2 min, then programmed to 230° C. at 15° C./min and held for 15 min or a 30 m×0.25-mm ID, 0.25-μm film-thickness DB-1 capillary column (50° C. for 2 min, then programmed to 300° C. at 15° C./min and held for 15 min) with helium as carrier gas. […] GC-Fourier transform infrared (FTIR) spectra were recorded on a HP GC coupled to a Bio-Rad IRD II infrared detector using a 60 m DB-WAXETR capillary column with conditions as described as above. […] NMR spectra were recorded in C6D6 solution on a Bruker QE Plus spectrometer at 300 MHz for ^1H. […]

SMILES	effect on attraction to the RS isomers (male M. hirsutus)	antennal activity [1]	EAD response of male M. hirsutus antennae [2]
C=C(C)[C@H](CO)CC=C(C)C [(R)-lavandulol, (R)-(−)-lavandulol, reference compound]	significantly reduced attraction	did not elicited any antennal activity	
CC[C@H](C)C(=O)OC[C@@H]1CC(=C(C)C)C1(C)C [compound 2, [(R)-2,2-Dimethyl-3-(1-methylethylidene)cyclobutyl]methyl (S)-2-methylbutanoate]			consistently responded
CC(C)=C1C[C@@H](CO)C1(C)C [(R)-maconelliol, [(R)-(−)-2,2-Dimethyl-3-(1-methylethylidene)cyclobutyl]methanol]	significantly reduced attraction	did not elicited any antennal activity	
C=C(C)[C@@H](CC=C(C)C)COC(=O)[C@@H](C)CC [compound 1, (R)-2-Isopropenyl-5-methylhex-4-enyl (S)-2-methylbutanoate]			consistently responded
